From PubChem BioAssay (NCI)
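Five concentrations, 48 hours, 96-well plates. TGI: concentration producing complete growth inhibition.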

Key:
Assay in all cases: DTP human tumour cell line panel, 48 h
SK-MEL-28 melanoma = tested on: SK-MEL-28 melanoma
A549 NSCLC = tested on: A549 NSCLC
UACC-62 melanoma = tested on: UACC-62 melanoma
HOP-18 NSCLC = tested on: HOP-18 NSCLC
RXF 393 renal = tested on: RXF 393 renal
TK-10 renal = tested on: TK-10 renal
SF-295 CNS = tested on: SF-295 CNS
ACHN renal = tested on: ACHN renal
A498 renal = tested on: A498 renal
M19-MEL melanoma = tested on: M19-MEL melanoma
HCT-116 colon = tested on: HCT-116 colon
HOP-92 NSCLC = tested on: HOP-92 NSCLC
MALME-3M melanoma = tested on: MALME-3M melanoma
OVCAR-8 ovarian = tested on: OVCAR-8 ovarian
HCC-2998 colon = tested on: HCC-2998 colon
M14 melanoma = tested on: M14 melanoma
786-0 renal = tested on: 786-0 renal
IGROV1 ovarian = tested on: IGROV1 ovarian
NCI-H522 lung = tested on: NCI-H522 lung
SNB-78 CNS = tested on: SNB-78 CNS
CCRF-CEM leukemia = tested on: CCRF-CEM leukemia
UACC-257 melanoma = tested on: UACC-257 melanoma
CAKI-1 renal = tested on: CAKI-1 renal
SN12C renal = tested on: SN12C renal
NCI-H460 lung = tested on: NCI-H460 lung
OVCAR-3 ovarian = tested on: OVCAR-3 ovarian
HT29 colon = tested on: HT29 colon
DLD-1 colon = tested on: DLD-1 colon
U251 CNS = tested on: U251 CNS
DMS 273 small cell lung = tested on: DMS 273 small cell lung
SNB-75 CNS = tested on: SNB-75 CNS
NCI-H226 lung = tested on: NCI-H226 lung
SW-620 colon = tested on: SW-620 colon
SK-OV-3 ovarian = tested on: SK-OV-3 ovarian
COLO 205 colon = tested on: COLO 205 colon
RPMI-8226 leukemia = tested on: RPMI-8226 leukemia
DMS 114 small cell lung = tested on: DMS 114 small cell lung
K-562 leukemia = tested on: K-562 leukemia
EKVX NSCLC = tested on: EKVX NSCLC
MOLT-4 leukemia = tested on: MOLT-4 leukemia
NCI-H23 lung = tested on: NCI-H23 lung
LXFL 529 NSCLC = tested on: LXFL 529 NSCLC
KM12 colon = tested on: KM12 colon
UO-31 renal = tested on: UO-31 renal
HCT-15 colon = tested on: HCT-15 colon
SK-MEL-5 melanoma = tested on: SK-MEL-5 melanoma
SR leukemia = tested on: SR leukemia
HL-60(TB) leukemia = tested on: HL-60(TB) leukemia
SF-539 CNS = tested on: SF-539 CNS
KM20L2 colon = tested on: KM20L2 colon
SF-268 CNS = tested on: SF-268 CNS
SNB-19 CNS = tested on: SNB-19 CNS
OVCAR-5 ovarian = tested on: OVCAR-5 ovarian
LOX IMVI melanoma = tested on: LOX IMVI melanoma
HOP-62 NSCLC = tested on: HOP-62 NSCLC
OVCAR-4 ovarian = tested on: OVCAR-4 ovarian
SK-MEL-2 melanoma = tested on: SK-MEL-2 melanoma

Measured: TGI

CC1CC(=O)C2CC(CO)=CCCC2C1(C)CC/C(=C/CO)CO (stereo not drawn)
not listed: SR leukemia | HL-60(TB) leukemia | SF-539 CNS | KM20L2 colon | SF-268 CNS | SNB-19 CNS | OVCAR-5 ovarian | LOX IMVI melanoma | HOP-62 NSCLC | OVCAR-4 ovarian | SK-MEL-2 melanoma
> 100 µM: all other assays above

CCOC(=O)N1Cc2ccoc2C1
not listed: A498 renal | SNB-78 CNS | CAKI-1 renal
> 100 µM: all other assays above

O=C(OCCOC(=O)c1ccc2c(c1)C1(SCCS1)c1ccccc1-2)c1ccc2c(c1)C1(SCCS1)c1ccccc1-2
not listed: RXF 393 renal | TK-10 renal | HOP-92 NSCLC | 786-0 renal | DMS 273 small cell lung
> 100 µM: all other assays above

N#CC1(Cc2ccccc2[N+](=O)[O-])c2ccccc2C2C(N1C(=O)c1ccccc1)C2(Cl)Cl (stereo not drawn)
not listed: RPMI-8226 leukemia | SR leukemia | HL-60(TB) leukemia | HOP-62 NSCLC
> 100 µM: all other assays above

NC1C(O)C(O)C(CO)OC1n1cc(F)c(=O)[nH]c1=O (stereo not drawn)
not listed: UACC-62 melanoma | A498 renal | M19-MEL melanoma | OVCAR-8 ovarian | M14 melanoma | 786-0 renal | IGROV1 ovarian | OVCAR-3 ovarian | K-562 leukemia | EKVX NSCLC | UO-31 renal | SF-539 CNS | KM20L2 colon | HOP-62 NSCLC
> 100 µM: all other assays above
